Assay results as given in the supplement of paper PMC10307832.

Key:
Assay in all cases: relative viability (nuclei count vs DMSO), 5 days (fraction); higher = more cells survive
Tanzisertib + Lapatinib = compound: O[C@H]1CC[C@H](Nc2ncc3nc(Nc4c(F)cc(F)cc4F)n([C@H]4CCOC4)c3n2)CC1 [Tanzisertib] + CS(=O)(=O)CCNCc1ccc(-c2ccc3ncnc(Nc4ccc(OCc5cccc(F)c5)c(Cl)c4)c3c2)o1 [Lapatinib] (partner 2 µM)
How it was run: (§1)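 Lung cancer cell lines were pin-tool dosed in 1536-well plates on the day after seeding, with either a lone drug or a fixed anchor-drug dose plus five library-drug doses (not always all listed) in √10 steps. Nuclei were counted on 4× images after 5 days. Relative viability is the ratio of treated-well to vehicle-well nuclei counts, with each value a median of duplicate plates.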

[1] = compound: C[C@@H](N)c1ccc(C(=O)Nc2ccnc3[nH]ccc23)cc1 + Cc1nc(NC(=O)N2CCC[C@H]2C(N)=O)sc1-c1ccnc(C(C)(C)C(F)(F)F)c1 [Alpelisib] (partner 2 µM)
How it was run: as §1

[2] = compound: C1CNCCC1C2=CC(=NN2)C3=CC=NC=C3 + Nc1ncn([C@H]2C[C@H](O)[C@@H](CO)O2)c(=O)n1 [Decitabine] (partner 2 µM)
How it was run: as §1

[3] = compound: C1CNCCC1C2=CC(=NN2)C3=CC=NC=C3 + N=C(N)NC(=N)NCCc1ccccc1 [Phenformin] (partner 250 µM)
How it was run: as §1

| Cell Line | relative viability (Tanzisertib + Lapatinib; first compound 0.08 µM) | relative viability (Tanzisertib + Lapatinib; first compound 0.253 µM) | relative viability (Tanzisertib + Lapatinib; first compound 2.53 µM) | relative viability (Tanzisertib + Lapatinib; first compound 8 µM) | relative viability ([1]; first compound 0.04 µM) | relative viability ([1]; first compound 0.1265 µM) | relative viability ([1]; first compound 0.4 µM) | relative viability ([1]; first compound 1.265 µM) | relative viability ([1]; first compound 4 µM) | relative viability ([2]; first compound 0.08 µM) | relative viability ([2]; first compound 0.8 µM) | relative viability ([2]; first compound 2.53 µM) | relative viability ([2]; first compound 8 µM) | relative viability ([3]; first compound 0.08 µM) | relative viability ([3]; first compound 0.8 µM) | relative viability ([3]; first compound 2.53 µM) | relative viability ([3]; first compound 8 µM) | relative viability (Tanzisertib + Lapatinib; first compound 0.8 µM) |
| --- | --- | --- | --- | --- | --- | --- | --- | --- | --- | --- | --- | --- | --- | --- | --- | --- | --- | --- |
| ABC-1 | 1.17 | 1 | 1.36 | 1.41 | 1.22 | 1.04 | 1.37 | 1.58 | 0.809 | 1.23 | 1.02 | 1.32 | 1.08 | 0.244 | 0.195 | 0.259 | 0.257 |  |
| 201T | 1.04 | 1.02 | 1.02 | 1.07 | 1.06 | 1.01 | 1.01 | 1.06 | 1.24 | 0.835 | 0.857 | 0.846 | 0.866 | 0.434 | 0.464 | 0.461 | 0.415 | 0.997 |
| NCI-H1734 | 1.15 | 1.13 | 1.16 | 1.08 | 0.747 | 0.638 | 0.622 |  | 0.487 | 0.452 | 0.524 | 0.488 | 0.497 | 0.348 | 0.421 | 0.36 | 0.401 | 0.952 |
| NCI-H520 | 0.834 | 0.804 | 0.789 | 0.819 | 0.971 | 0.969 | 1.21 | 1.12 | 1.07 | 0.445 | 0.519 | 0.518 | 0.498 | 0.439 | 0.309 | 0.758 | 0.908 | 0.827 |
| NCI-H1355 | 1.02 | 1.03 | 1.06 | 1.05 | 0.885 | 0.833 | 0.919 |  | 0.746 | 0.374 | 0.36 | 0.395 | 0.354 | 0.482 | 0.463 | 0.49 | 0.456 | 1.05 |
| NCI-H1915 | 0.994 | 1 | 1.02 | 0.947 | 1.12 | 1.06 | 1.06 |  | 0.873 | 0.267 | 0.249 | 0.26 | 0.263 | 0.376 | 0.389 | 0.346 | 0.377 | 0.897 |
| BEN | 0.773 | 0.806 | 0.795 | 0.712 | 1.07 | 0.995 | 1.09 | 1.25 | 0.731 | 0.676 | 0.652 | 0.779 | 0.777 | 0.312 | 0.172 | 0.243 | 0.271 | 0.721 |
| NCI-H3122 | 1.03 | 1.01 | 1.06 | 1.06 | 0.827 | 0.76 | 0.827 | 0.762 | 0.797 | 0.421 | 0.453 | 0.417 | 0.521 | 0.329 | 0.414 | 0.402 | 0.364 | 0.998 |
| SK-MES-1 | 0.49 | 0.438 | 0.509 | 0.466 | 1 | 0.986 | 1.01 | 0.786 | 0.834 | 0.29 | 0.436 | 0.397 | 0.339 | 0.635 | 0.68 | 0.634 | 0.603 | 0.455 |
| HOP-62 | 1.25 | 0.85 | 1.12 | 0.511 | 0.761 | 0.825 | 0.793 | 0.705 | 0.805 | 0.226 | 0.234 | 0.205 | 0.201 | 0.602 | 0.844 | 0.756 | 0.621 | 1.06 |
| HCC-366 | 0.985 | 1.06 | 1.07 | 1.03 | 0.41 | 0.398 | 0.581 |  | 0.329 | 0.266 | 0.353 | 0.373 | 0.366 | 0.653 | 0.656 | 0.618 | 0.659 | 1.1 |
| NCI-H2347 | 1.05 | 1.01 | 1.07 | 0.869 | 1.02 | 0.976 | 1.2 | 1.05 | 0.845 | 0.63 | 0.621 | 0.658 | 0.567 | 0.398 | 0.225 | 0.412 | 0.48 | 0.971 |
| A549 | 1.04 | 0.92 | 1.05 | 1.07 | 0.877 | 0.834 | 0.846 | 0.751 | 0.559 | 0.208 | 0.282 | 0.302 | 0.146 | 0.107 | 0.153 | 0.199 | 0.156 | 0.921 |
| LXF-289 | 0.99 | 0.883 | 0.926 | 0.977 | 1.12 | 1.04 | 1.04 | 1.07 | 0.85 | 0.349 | 0.35 | 0.395 | 0.371 | 0.449 | 0.48 | 0.533 | 0.496 | 0.983 |
| NCI-H1793 | 0.737 | 0.873 | 0.608 | 0.643 | 0.853 | 0.672 | 0.704 |  | 0.833 | 0.338 |  | 0.489 | 0.626 | 0.307 | 0.162 | 0.441 | 0.426 | 0.74 |
| LU99A | 1.1 | 0.934 | 1.11 | 1.2 | 0.554 | 0.554 | 0.562 | 0.545 | 0.52 | 0.857 | 0.982 | 0.919 | 0.842 | 0.748 | 0.877 | 0.956 | 0.874 | 0.934 |
| PC-14 | 0.34 | 0.303 | 0.341 | 0.311 | 0.925 | 0.932 | 1.02 | 1.02 | 0.811 | 0.22 | 0.19 | 0.268 | 0.265 | 0.529 | 0.684 | 0.743 | 0.579 | 0.26 |
| NCI-H2085 | 0.794 | 0.726 | 0.83 | 0.755 | 1 | 0.923 | 0.925 | 0.936 | 0.966 | 0.526 |  | 0.578 | 0.531 | 0.744 | 0.418 | 0.801 | 0.817 | 0.818 |
